Entries after “also recorded” stand apart in the source; their conditions may differ.
Assays:
isolated rabbit hearts = assay: Limitation of infarct size in isolated buffer-perfused rabbit hearts, drug at reperfusion
Method: The quantification of infarct size and experimental design followed the protocol described by Zhang et al., J Cardiovasc Pharmacol 42, 2003.
Hearts were quickly removed from anesthetized rabbits and perfused with Krebs buffer. […] The risk zone was stained with fluorescent microspheres, then the heart was sliced into 2 mm sections and the infarct size was visualized by tetrazolium staining. The drug was mixed with the perfusate at 50 μg/L starting 5 min prior to reperfusion and continuing for 55 min. […] Ischemic preconditioning is the most powerful cardioprotective intervention known but of no practical value clinically.

rabbit hearts (in vivo) = assay: Limitation of infarct size in rabbit hearts in vivo (open-chest rabbits), drug at reperfusion; design: species or system New Zealand White rabbits
Method: Rabbits (New Zealand White rabbits of either sex weighing 1.6 to 3.0 kg) were anesthetized with sodium pentobarbital (30 mg/kg) which was subsequently supplemented as needed. Positive pressure ventilation with 100% oxygen was instituted. The heart was exposed through a left thoracotomy and a ligature was passed under a coronary branch to create the ischemia. Drug was given intravenously in a dose of 10 μg/kg over 1 min starting 5 min prior to reperfusion and again 15 min after reperfusion. The heart was removed after 3 hr of reperfusion. The risk zone was stained with fluorescent microspheres, then the heart was sliced into 2 mm sections and the infarct size was determined by tetrazolium staining.
Postconditioning is an established cardioprotective intervention where the occluded artery is intermittently opened and closed for four 30-second cycles at the end of the ischemic insult.

[1] = Tolerability when given intravenously; type: in vivo

Compound: N#Cc1c(N)nc(SCC(N)=O)c(C#N)c1-c1ccc(O)cc1 [Compound A, 2-{[6-Amino-3,5-dicyano-4-(4-hydroxyphenyl)pyridin-2-yl]thio}acetamide]
- reduction of infarct size (isolated rabbit hearts; 50 μg/L in perfusate from 5 min prior to reperfusion for 55 min, 30 min ischemia, 2 hr reperfusion): ~50%
- protection compared with ischemic preconditioning (IPC) (isolated rabbit hearts; 50 μg/L, IPC = 5 min ischemia and 10 min reperfusion): not as protective as ischemic preconditioning
- infarct size in % of risk area, untreated hearts in comparison to treated hearts (isolated rabbit hearts; 50 μg/L, p=0.032): significantly larger

Compound: N#Cc1c(N)nc(SCC(N)=O)c(C#N)c1-c1ccc(OCC2CC2)cc1 [Compound B, 2-({6-Amino-3,5-dicyano-4-[4-(cyclopropylmethoxy)phenyl]pyridin-2-yl}thio)acetamide]
- infarct size limitation compared with postconditioning (rabbit hearts (in vivo); 10 μg/kg i.v. 5 min prior to and 15 min after reperfusion): equivalent to postconditioning in its potency; also recorded: as effective as postconditioning
- reduction of infarct size (rabbit hearts (in vivo); 10 μg/kg i.v. 5 min prior to and 15 min after reperfusion, 30 min regional ischemia, 3 hr reperfusion): > 50%
- adverse hemodynamic effects (rabbit hearts (in vivo); 10 μg/kg i.v., open-chest rabbits): No adverse hemodynamic effects
- tolerability [1]: well tolerated

Reference: patent publication US20090221649A1, “Use of substituted 2-thio-3,5-dicyano-4-phenyl-6-aminopyridines for the treatment of reperfusion injury and reperfusion damage” (Bayer HealthCare AG, priority 2005, published 2009)
